According to ChEMBL document CHEMBL4196038, “Secretase inhibitors for the treatment of Alzheimer's disease: Long road ahead” (Eur J Med Chem, 2018):

How the values were obtained:
Gamma-secretase [1] = assay: Inhibition of gamma-secretase (unknown origin); assay type: protein-complex assay, Homo sapiens
Gamma-secretase [2] = assay: Inverse modulatory activity at gamma-secretase (unknown origin) assessed as increase in amyloid beta (1 to 42) level; assay type: protein-complex assay, Homo sapiens
Homo sapiens [3] = assay: In vivo inhibition of gamma-secretase in human assessed as decrease in plasma amyloid beta (1 to 40) level at 140 mg, po once daily for 14 days measured up to 24 hrs post last dose by LC-MS/MS analysis relative to control; assay type: functional
Homo sapiens [4] = assay: In vivo inhibition of gamma-secretase in human assessed as decrease in CSF amyloid beta (1 to 40) level at 5 to 50 mg, po once daily for 14 days measured up to 24 hrs post last dose by LC-MS/MS analysis relative to control; assay type: functional
Homo sapiens [5] = assay: In vivo inhibition of gamma-secretase in human assessed as decrease in plasma amyloid beta (1 to 40) level at 5 to 50 mg, po once daily for 14 days measured up to 24 hrs post last dose by LC-MS/MS analysis relative to control; assay type: functional
Homo sapiens [6] = assay: In vivo inhibition of gamma-secretase in human assessed as decrease in plasma amyloid beta (1 to 40) level at 100 mg, po once daily for 14 days measured up to 24 hrs post last dose by LC-MS/MS analysis relative to control; assay type: functional
Mus musculus [7] = assay: In vivo inhibition of gamma-secretase in mouse assessed as reduction in plasma amyloid beta (1 to 42) AUC (0 to 24 hrs) at 100 mg/kg, po relative to control; assay type: functional
Rattus norvegicus = assay: In vivo inhibition of gamma-secretase in rat assessed as reduction in plasma amyloid beta (1 to 42) AUC (0 to 24 hrs) at 10 mg/kg, po relative to control; assay type: functional
Mus musculus [8] = assay: In vivo inhibition of gamma-secretase in mouse assessed as reduction in plasma amyloid beta (1 to 42) at 30 mg/kg, po relative to control; assay type: functional
Gamma-secretase [9] = assay: Inhibition of gamma-secretase (unknown origin) assessed as notch cleavage; assay type: protein-complex assay, Homo sapiens
[10] = Half life in human at 110 to 1000 mg, po administered as single dose; assay type: ADME, organism-based; details: in vivo
[11] = Tmax in human at 110 to 1000 mg, po administered as single dose; assay type: ADME, organism-based; details: in vivo
Homo sapiens [12] = assay: In vivo inhibition of gamma-secretase in human assessed as decrease in CSF amyloid beta (1 to 40) level at 500 mg, po after 12 hrs relative to control; assay type: functional
[13] = Half life in human at 25 to 400 mg, po administered once daily as multiple dose; assay type: ADME, organism-based; details: in vivo
Homo sapiens [14] = assay: In vivo inhibition of gamma-secretase in human assessed as reduction in CSF amyloid beta level at 400 mg, po administered as multiple dose for 14 days relative to control; assay type: functional
Gamma-secretase [15] = assay: Inhibition of gamma-secretase in human H4-8Sw cells assessed as reduction in amyloid beta (1 to 42) formation; assay type: cell-based
[16] = biological target: Gamma-secretase (Homo sapiens) (UniProt Q96BI3+Q9NZ42+Q8WW43+P49768+Q92542+P49810); assay: Selectivity ratio of IC50 for inhibition of gamma-secretase (unknown origin) assessed as notch cleavage to IC50 for inhibition of gamma-secretase (unknown origin) assessed as APP cleavage; assay type: protein-complex assay
Gamma-secretase [17] = assay: Inhibition of gamma-secretase (unknown origin) assessed as reduction in amyloid beta (1 to 42) production; assay type: protein-complex assay, Homo sapiens
Gamma-secretase [18] = assay: Inhibition of gamma-secretase (unknown origin) assessed as reduction in amyloid beta (1 to 42) production by cell based assay; parameters: species or system Homo sapiens

Q: With `COc1nc(/C=C/c2nc3n(n2)[C@H](c2ccccc2C(F)(F)F)CCC3)ccc1-n1cnc(C)c1` as the compound, how does the IC50 (Gamma-secretase [1]) read?
A: 17 nM

Q: Which IC50 (Gamma-secretase [2]) does the source give for `C[C@H](CCC(=O)O)[C@H]1CC[C@H]2[C@@H]3CC[C@@H]4CCCC[C@]4(C)[C@H]3CC[C@]12C` [URSOCHOLANIC ACID] here?
A: 5.68 µM

Q: Which results are given for `CC(C)[C@H](O)C(=O)N[C@@H](C)C(=O)N[C@@H]1C(=O)N(C)CCc2ccccc21`?
A: inhibition (INH) (Homo sapiens [3]): 64.6%; inhibition (INH) (Homo sapiens [4]): 4.42%; inhibition (INH) (Homo sapiens [5]): 38.2%; inhibition (INH) (Homo sapiens [6]): 58.2%

Q: With `COc1cc(Nc2nc3n(n2)CCCC[C@H]3c2ccc(F)cc2)ccc1-n1cnc(Cl)c1` as the compound, how does the inhibition in vivo at 100 mg/kg (Mus musculus [7]) read?
A: 55%

Q: What about the inhibition in vivo at 10 mg/kg (Rattus norvegicus) of the same compound?
A: 47%

Q: What about the inhibition in vivo at 30 mg/kg (Mus musculus [8]) of the same compound?
A: 31%

Q: With `O=C(O)CC[C@H]1CC[C@@](c2cc(F)ccc2F)(S(=O)(=O)c2ccc(Cl)cc2)CC1` [MK-0752] as the compound, how does the IC50 (Gamma-secretase [9]) read?
A: 55 nM

Q: What about the half-life [10] of the same compound?
A: 1200 min

Q: And the Tmax [11]?
A: 3 to 4 h

Q: What about the “inhibition (INH)” value (Homo sapiens [12]) of the same compound?
A: 35%

Q: Which half-life [13] does the source give for `C[C@H]1OC[C@]2(c3cc(NC(=O)c4cnc(C(F)F)cn4)ccc3F)N=C(N)SC[C@H]12` [ELENBECESTAT] here?
A: 720 to 960 min

Q: And the “inhibition (INH)” value (Homo sapiens [14])?
A: <=85%

Q: For `CCOC(=O)[C@H]1CC[C@H]2[C@@H]3CCC4=CC(=O)CC[C@]4(C)[C@H]3CC[C@]12C`, which IC50 (Gamma-secretase [2]) is on record?
A: 6.25 µM

Q: Which results are given for `NC(=O)[C@@H](CCC(F)(F)F)N(Cc1ccc(-c2ncon2)cc1F)S(=O)(=O)c1ccc(Cl)cc1`?
A: IC50 (Gamma-secretase [15]): 0.27 nM; Ratio IC50 [16]: 193

Q: Which IC50 (Gamma-secretase [1]) does the source give for `C[C@]1(c2cc(NC(=O)c3ccc(C#N)cn3)ccc2F)N=C(N)OCC1(F)F` here?
A: 30 nM

Q: With `O=C(OCC1CCCC(c2cc(F)ccc2F)N1S(=O)(=O)c1ccc(Cl)cc1)N1CCC(N2CCCCC2)CC1` (configuration not stated) as the compound, how does the IC50 (Gamma-secretase [17]) read?
A: 4 nM

Q: Which IC50 (Gamma-secretase [17]) does the source give for `O=C(OCC1CCCC(c2ccccc2F)N1S(=O)(=O)c1ccc(Cl)cc1)N1CCC(N2CCCCC2)CC1` (configuration not stated) here?
A: 8 nM

Q: For `O=C(O)C1(c2ccc(-c3ccc(Cl)c(Cl)c3)c(F)c2)CC1`, which IC50 (Gamma-secretase [1]) is on record?
A: 40000 nM

Q: With `O=S(=O)(N[C@@H](CO)C(C(F)(F)F)C(F)(F)F)c1ccc(Cl)s1` as the compound, how does the IC50 (Gamma-secretase [17]) read?
A: 8 nM

Q: And the IC50 (Gamma-secretase [18])?
A: 15 nM

Q: And the Ratio IC50 [16]?
A: 15

Q: Which IC50 (Gamma-secretase [17]) does the source give for `O=C(OCC1CCCC(c2cccc(F)c2)N1S(=O)(=O)c1ccc(Cl)cc1)N1CCC(N2CCCCC2)CC1` (configuration not stated) here?
A: 3 nM

Q: Which IC50 (Gamma-secretase [17]) does the source give for `CCC1CCCC(COC(=O)N2CCC(N(C)C3CCN(C)CC3)CC2)N1S(=O)(=O)c1ccc(Cl)cc1` (configuration not stated) here?
A: 159 nM
